Measurements published in patent EP0670721B1, “DRUG FOR TREATMENT AND PROPHYLAXIS OF BONE AND JOINT DISEASES” (Fricker, Christian, priority 1993, dated 1995).

Assay: Oral treatment of bone and joint diseases with raised internal pressure (own controlled trials)
Format: in vivo, Menschen, Hund, Pferd
Conditions: osteoarthrosis (human and veterinary), podotrochlosis of the horse
Text: Erfindungsgemäß konnte festgestellt werden, daß bei degenerativen Gelenkserkrankungen in den Epiphysen bei am Gelenk beteiligten Knochen ein pathologisch erhöhter Innendruck vorliegt. Analog zur Pathophysiologie des Kompartmentsyndroms wird der intraossäre Druckanstieg durch eine Anreicherung von osmotisch aktiven Substanzen in Intestitium verursacht. In Anlehnung an die vorgestellte Pathophysiologie kann somit erstmals eine kausale Therapie für degenerative Gelenkserkrankungen bereitgestellt werden. Benzopyrone und Dobesilat-calcium vermögen durch Stabilisierung der Kapillarwände einerseits und durch Proteinresorption andererseits den Druck im erkrankten Kompartment abzubauen. Der Druckabbau ermöglicht in der Folge eine Normalisierung der Mikrozirkulation und somit eine Gesundung der betroffenen Gewebe. Wie eigene, kontrollierte Versuche zeigen, eignen sich Benzopyrone wie auch Dobesilat-Calcium zur kausalen Therapie dieser auf innerem Überdruck in Knochen und Gelenken beruhenden Erkrankungen. Dies trifft insbesondere in der Human- und Veterinärmedizin für den Problemkreis der Osteoarthrose und in der Veterinärmedizin für die Podotrochlose des Pferdes zu.
Das 5,6-α-Benzopyron wurde in der Tagesdosis von: • 1 - 4 mg/kg KGW beim Menschen, • 2 - 4 mg/kg KGW beim Hund und • 0,5 - 1 mg/kg KGW beim Pferd peroral verabreicht. […]

For `O=S(=O)(O)c1cc(O)ccc1O` [Dobesilat-Calcium], the “Eignung zur kausalen Therapie der auf innerem Überdruck in Knochen und Gelenken beruhenden Erkrankungen” value was “eignen sich”.
